One assay concerns the target Bcl-2 (Homo sapiens (Human), UniProt P10415). Description: Bcl-2 HTRF assay (FAM-Bak peptide). Format: binding. As to conditions: HTRF, 4 nM Bcl-2, 100 nM FAM-Bak peptide; read-out: Bc1-2 IC50. A general note: TR-FRET usually uses a lanthanide donor and a delayed reading to cut background.
A further assay deals with Bcl-XL (Homo sapiens (Human), UniProt Q07817). Description: Bcl-XL HTRF assay (FAM-Bad peptide). Format: binding. Particulars: HTRF, 3 nM Bcl-XL, 40 nM FAM-Bad peptide; read-out: Bc1-XL IC50.
Another assay has as its system RS4;11 cells. The assay is described as follows: RS4;11 cell proliferation assay (CellTiter-Glo). Format: cell-based. As to conditions: Homo sapiens, RS4-11, 48 h, read-out: RS4;11 (nM), CTG IC50. On the technique in general: ATP-based viability assays read luminescence as a measure of living cells.
The test system of the next assay is NCI-H1963 cells. The assay is described as follows: NCI-H1963 cell proliferation assay (CellTiter-Glo). The class given is cell-based. As to conditions: Homo sapiens, NCI-H1963, 72 h, read-out: H1963 (nM), CTG IC50. As for the experimental part: Cell proliferation was measured using the CellTiter-Glo® Luminescent Cell Viability Assay. The assay involved the addition of a single reagent (CellTiter-Glo® Reagent) directly to cells cultured in serum-supplemented medium.
Each compound evaluated was prepared as a DMSO stock solution (10 mM). Compounds were tested in duplicate on each plate, with a 10-point serial dilution curve (1:3 dilution). Compound treatment (1.0 μL) was added from the compound dilution plate to the cell plate. The highest compound concentration was 10 μM (final), with a 0.1% final DMSO concentration. Plates were then incubated at 37° C., 5% CO2. After 48 h of compound treatment for RS4;11 or 72 h for NCI-H1963, cell plates were equilibrated at rt for approximately 30 mins. An equi-volume amount of CellTiter-Glo® Reagent (40 μL) was added to each well. […] Luminescence was recorded using a Envision plate reader according to CellTiter-Glo protocol. IC50 of each compound was calculated using GraphPad Prism by nonlinear regression analysis.

Molecules are shown by their SMILES. Where only a bound is given, the exact number is not on record here.

Chain of Bcl-XL (Q07817 whole entry): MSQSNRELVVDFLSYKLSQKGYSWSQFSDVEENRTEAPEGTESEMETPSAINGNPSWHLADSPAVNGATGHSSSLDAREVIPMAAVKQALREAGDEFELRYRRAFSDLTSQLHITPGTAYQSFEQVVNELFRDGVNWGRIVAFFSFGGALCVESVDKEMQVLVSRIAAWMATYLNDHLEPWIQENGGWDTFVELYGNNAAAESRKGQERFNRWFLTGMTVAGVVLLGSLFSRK
Chain of Bcl-2 (P10415 whole entry): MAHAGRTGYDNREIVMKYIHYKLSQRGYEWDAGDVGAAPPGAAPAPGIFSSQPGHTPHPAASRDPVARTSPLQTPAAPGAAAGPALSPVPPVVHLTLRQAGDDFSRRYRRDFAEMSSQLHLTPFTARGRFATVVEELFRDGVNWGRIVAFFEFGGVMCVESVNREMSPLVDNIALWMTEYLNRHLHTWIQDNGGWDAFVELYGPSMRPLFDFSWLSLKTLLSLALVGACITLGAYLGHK

In the case of `CN(C)CC[C@H](CSc1ccccc1)Nc1ccc(S(=O)(=O)NC(=O)c2ccc(N3CCN(CC4=C(C56CC(C(F)F)(C5)C6)CC(C)(C)CC4)CC3)cc2)cc1S(=O)(=O)C(F)(F)F` [Example 63, (R)-4-(4-((2-(3-(Difluoromethyl)bicyclo[1.1.1]pentan-1-yl)-4,4-dimethylcyclohex-1-en-1-yl)methyl)piperazin-1-yl)-N-((4-((4-(dimethylamino)-1-(phenylthio)butan-2-yl)amino)-3-((trifluoromethyl)sulfonyl)phenyl)sulfonyl)benzamide], the IC50 on Bcl-2 is at most 10 nM; on Bcl-XL, at most 10 nM; in the assay with RS4;11 cells, under 100 nM; in the assay with NCI-H1963 cells it was under 500 nM.
As for `CN(C)C1CCN(CC[C@H](CSc2ccccc2)Nc2ccc(S(=O)(=O)NC(=O)c3ccc(N4CCN(CC5=C(C67CC(C(F)F)(C6)C7)CC(C)(C)CC5)CC4)cc3)cc2S(=O)(=O)C(F)(F)F)CC1` [Example 62, (R)-4-(4-((2-(3-(Difluoromethyl)bicyclo[1.1.1]pentan-1-yl)-4,4-dimethylcyclohex-1-en-1-yl)methyl)piperazin-1-yl)-N-((4-((4-(4-(dimethylamino)piperidin-1-yl)-1-(phenylthio)butan-2-yl)amino)-3-((trifluoromethyl)sulfonyl)phenyl)sulfonyl)benzamide], the IC50 was at most 10 nM at Bcl-2, at most 10 nM on Bcl-XL, 100 to 1000 nM in the assay on RS4;11 cells and under 500 nM with NCI-H1963 cells.
As to `CC1(C)CCC(CN2CCN(c3ccc(C(=O)NS(=O)(=O)c4ccc(N[C@H](CCN5CCC(O)CC5)CSc5ccccc5)c(S(=O)(=O)C(F)(F)F)c4)cc3)CC2)=C(C23CC(C(F)F)(C2)C3)C1` [Example 61, (R)-4-(4-((2-(3-(Difluoromethyl)bicyclo[1.1.1]pentan-1-yl)-4,4-dimethylcyclohex-1-en-1-yl)methyl)piperazin-1-yl)-N-((4-((4-(4-hydroxypiperidin-1-yl)-1-(phenylthio)butan-2-yl)amino)-3-((trifluoromethyl)sulfonyl)phenyl)sulfonyl)benzamide], the IC50 at Bcl-2 is at most 10 nM; on Bcl-XL, at most 10 nM; with RS4;11 cells, under 100 nM; in the assay on NCI-H1963 cells it was under 500 nM.
In the case of `CN(CCO)CC[C@H](CSc1ccccc1)Nc1ccc(S(=O)(=O)NC(=O)c2ccc(N3CCN(CC4=C(C56CC(C(F)F)(C5)C6)CC(C)(C)CC4)CC3)cc2)cc1S(=O)(=O)C(F)(F)F` [Example 60, (R)-4-(4-((2-(3-(difluoromethyl)bicyclo[1.1.1]pentan-1-yl)-4,4-dimethylcyclohex-1-en-1-yl)methyl)piperazin-1-yl)-N-((4-((4-((2-hydroxyethyl)(methyl)amino)-1-(phenylthio)butan-2-yl)amino)-3-((trifluoromethyl)sulfonyl)phenyl)sulfonyl)benzamide], the IC50 on Bcl-2 is at most 10 nM; at Bcl-XL, at most 10 nM; in the assay with RS4;11 cells, under 100 nM; with NCI-H1963 cells it was 500 to 1000 nM.
Consider `CC1(C)CCC(CN2CCN(c3ccc(C(=O)NS(=O)(=O)c4ccc(N[C@H](CCN5CCNCC5)CSc5ccccc5)c(S(=O)(=O)C(F)(F)F)c4)cc3)CC2)=C(C23CC(C(F)F)(C2)C3)C1` [Example 64, (R)-4-(4-((2-(3-(difluoromethyl)bicyclo[1.1.1]pentan-1-yl)-4,4-dimethylcyclohex-1-en-1-yl)methyl)piperazin-1-yl)-N-((4-((1-(phenylthio)-4-(piperazin-1-yl)butan-2-yl)amino)-3-((trifluoromethyl)sulfonyl)phenyl)sulfonyl)benzamide], for which the IC50 on Bcl-2 is at most 10 nM; on Bcl-XL, at most 10 nM; in the assay on RS4;11 cells it was 100 to 1000 nM; in the assay with NCI-H1963 cells it was over 1000 nM.
Take `CCN(CCO)CC[C@H](CSc1ccccc1)Nc1ccc(S(=O)(=O)NC(=O)c2ccc(N3CCN(CC4=C(C56CC(C(F)F)(C5)C6)CC(C)(C)CC4)CC3)cc2)cc1S(=O)(=O)C(F)(F)F` [Example 70, (R)-4-(4-((2-(3-(difluoromethyl)bicyclo[1.1.1]pentan-1-yl)-4,4-dimethylcyclohex-1-en-1-yl)methyl)piperazin-1-yl)-N-((4-((4-(ethyl(2-hydroxyethyl)amino)-1-(phenylthio)butan-2-yl)amino)-3-((trifluoromethyl)sulfonyl)phenyl)sulfonyl)benzamide]: the IC50 was at most 10 nM at Bcl-2, at most 10 nM at Bcl-XL, 100 to 1000 nM with RS4;11 cells and over 1000 nM with NCI-H1963 cells.
With `CN(C)CC[C@H](CSc1ccccc1)Nc1ccc(S(=O)(=O)NC(=O)c2ccc(N3CCN(CC4=C(C56CC(C)(C5)C6)CC(C)(C)CC4)CC3)cc2)cc1S(=O)(=O)C(F)(F)F` [Example 59, (R)-4-(4-((4,4-dimethyl-2-(3-methylbicyclo[1.1.1]pentan-1-yl)cyclohex-1-en-1-yl)methyl)piperazin-1-yl)-N-((4-((4-(dimethylamino)-1-(phenylthio)butan-2-yl)amino)-3-((trifluoromethyl)sulfonyl)phenyl)sulfonyl)benzamide], the IC50 at Bcl-2 is at most 10 nM; at Bcl-XL it was at most 10 nM; in the assay with RS4;11 cells it was 100 to 1000 nM; in the assay on NCI-H1963 cells, 500 to 1000 nM.

The record behind these values is patent US11318134B2, “Benzamide compounds” (priority 2018, dated 2022).
